Each structure is given as a SMILES string.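 In this assay, cells in 96-well plates receive the compound at five concentrations for 48 hours. Endpoints are linearly interpolated between the surrounding concentrations. The concentration for 50% growth inhibition is given as GI50. TGI denotes the concentration required for complete inhibition of growth.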

Among the test systems are OVCAR-4 ovarian; IGROV1 ovarian; HOP-62 NSCLC; KM12 colon; OVCAR-3 ovarian; HOP-92 NSCLC; SF-295 CNS; HS 578T breast; HCT-116 colon; SK-MEL-2 melanoma.
Experiment in all cases: inhibition of tumour cell growth, NCI panel, 48 h

Consider `Cn1c(=O)n(C)c2cc(CNCCNc3ccnc4cc(Cl)ccc34)ccc21`, for which the GI50 was 26.1 µM with OVCAR-4 ovarian; 37.4 µM with IGROV1 ovarian; 39.4 µM in the assay with HOP-62 NSCLC; 37.3 µM in the assay with KM12 colon; 30.8 µM with OVCAR-3 ovarian; 10.1 µM with HOP-92 NSCLC. The GI50 was 15.3 µM with SF-295 CNS, 23.8 µM in the assay on HS 578T breast, 17.9 µM with HCT-116 colon and 22.6 µM in the assay on SK-MEL-2 melanoma. The TGI was more than 100 µM with OVCAR-4 ovarian; more than 100 µM in the assay on IGROV1 ovarian; more than 100 µM with HOP-62 NSCLC; more than 100 µM in the assay with KM12 colon; more than 100 µM in the assay on OVCAR-3 ovarian; 49.6 µM in the assay with HOP-92 NSCLC. Also, the TGI in the assay with SF-295 CNS was 40.1 µM; with HS 578T breast, 95 µM; in the assay with HCT-116 colon, 54.5 µM; in the assay with SK-MEL-2 melanoma, 52.5 µM.

For the molecule `Clc1ccc(/C=C/c2ccc3ccccc3n2)cc1`, the GI50 with OVCAR-4 ovarian was more than 69.8 µM; in the assay with IGROV1 ovarian it was 0.716 µM; in the assay on HOP-62 NSCLC, more than 100 µM; in the assay with KM12 colon, 1.42 µM; in the assay on OVCAR-3 ovarian, 0.917 µM; in the assay on HOP-92 NSCLC, 2.82 µM. Besides, the GI50 was 1.2 µM with SF-295 CNS, 0.617 µM with HS 578T breast, 0.399 µM with HCT-116 colon and 0.311 µM in the assay with SK-MEL-2 melanoma. Moreover, the TGI in the assay with OVCAR-4 ovarian was more than 100 µM; with IGROV1 ovarian it was more than 80.8 µM; in the assay on HOP-62 NSCLC, more than 100 µM; in the assay with KM12 colon it was 20.6 µM; in the assay on OVCAR-3 ovarian, 6.73 µM; in the assay with HOP-92 NSCLC it was more than 29.9 µM. Moreover, the TGI with SF-295 CNS was 6.8 µM; in the assay with HS 578T breast it was 10.5 µM; with HCT-116 colon, more than 100 µM; in the assay with SK-MEL-2 melanoma it was 1.24 µM.

With `CCCN(CCC)c1ccc(C=O)c(Cl)c1`, the GI50 with OVCAR-4 ovarian was 0.78 µM; in the assay on IGROV1 ovarian it was 0.558 µM; in the assay on HOP-62 NSCLC, 13.3 µM; in the assay on KM12 colon, 28.6 µM; in the assay with OVCAR-3 ovarian, 1.67 µM; in the assay on HOP-92 NSCLC, 9.64 µM. Further, the GI50 is 3.87 µM in the assay with SF-295 CNS, 22.9 µM in the assay on HS 578T breast, 2.2 µM in the assay with HCT-116 colon and 15 µM in the assay on SK-MEL-2 melanoma. The TGI is 14.2 µM with OVCAR-4 ovarian; 7.18 µM with IGROV1 ovarian; 64.9 µM in the assay with HOP-62 NSCLC; more than 83.6 µM with KM12 colon; 6.7 µM in the assay on OVCAR-3 ovarian; 36 µM in the assay with HOP-92 NSCLC. The TGI with SF-295 CNS was 29.2 µM; in the assay on HS 578T breast, more than 96.8 µM; in the assay on HCT-116 colon, 19 µM; in the assay on SK-MEL-2 melanoma it was 44.3 µM.

For the molecule `CCOC(=O)c1sc(-c2ccc(OS(=O)(=O)C[C@]34CCC(CC3=O)C4(C)C)c(C=O)c2)nc1C`, the GI50 is 1.49 µM in the assay on OVCAR-4 ovarian; 1.07 µM with IGROV1 ovarian; 1.21 µM in the assay with HOP-62 NSCLC; 1.3 µM in the assay with KM12 colon; 0.904 µM with OVCAR-3 ovarian; 0.951 µM with HOP-92 NSCLC. The results for the GI50 in the assay with SF-295 CNS, with HS 578T breast and with SK-MEL-2 melanoma were 1.16 µM, 1.32 µM and 1.13 µM, respectively. Further, the TGI in the assay with OVCAR-4 ovarian was more than 50 µM; with IGROV1 ovarian it was 2.85 µM; in the assay on HOP-62 NSCLC, 3.27 µM; in the assay with KM12 colon, 3.54 µM; with OVCAR-3 ovarian, 2.72 µM; with HOP-92 NSCLC, 3.7 µM. Besides, the TGI in the assay with SF-295 CNS was determined as 2.85 µM; in the assay with HS 578T breast, 4.23 µM; in the assay with SK-MEL-2 melanoma, 2.69 µM.

On to `COc1cc(F)ccc1-c1cc(Nc2cc(CS(C)(=N)=O)ccn2)ncc1F` (stereo not drawn), for which the GI50 was 0.227 µM in the assay with OVCAR-4 ovarian; 0.0571 µM in the assay with IGROV1 ovarian; 0.0624 µM with HOP-62 NSCLC; 0.0479 µM with KM12 colon; 0.0803 µM with OVCAR-3 ovarian; 0.0214 µM with HOP-92 NSCLC. Besides, the GI50 is 0.0662 µM in the assay with SF-295 CNS, 0.0919 µM with HS 578T breast, 0.0293 µM with HCT-116 colon and 0.135 µM in the assay with SK-MEL-2 melanoma. In addition, the TGI was more than 100 µM with IGROV1 ovarian; more than 100 µM in the assay on HOP-62 NSCLC; 15.6 µM in the assay with KM12 colon; more than 100 µM in the assay on OVCAR-3 ovarian; 0.314 µM in the assay on HOP-92 NSCLC; more than 100 µM with SF-295 CNS. Further, the TGI with HCT-116 colon is more than 100 µM; with SK-MEL-2 melanoma, 0.437 µM.

For the molecule `Cc1ccc(S(=O)(=O)c2nc(-c3ccccc3)oc2S(C)(=O)=O)cc1`, the GI50 in the assay on OVCAR-4 ovarian is 1.92 µM; in the assay on HOP-62 NSCLC it was 13.3 µM; in the assay on KM12 colon it was 13 µM; in the assay with OVCAR-3 ovarian, 1.86 µM; in the assay with HOP-92 NSCLC it was 1.84 µM; in the assay on SF-295 CNS, 12.2 µM. Moreover, the GI50 with HS 578T breast is 10.1 µM; in the assay with HCT-116 colon, 1.78 µM; with SK-MEL-2 melanoma it was 3.4 µM. Further, the TGI worked out at 3.72 µM in the assay with OVCAR-4 ovarian; 26.1 µM in the assay on HOP-62 NSCLC; 27.2 µM in the assay on KM12 colon; 3.35 µM in the assay on OVCAR-3 ovarian; 3.48 µM with HOP-92 NSCLC; 24.6 µM in the assay on SF-295 CNS. Besides, the TGI in the assay with HS 578T breast worked out at 43.8 µM; in the assay with HCT-116 colon, 3.25 µM; in the assay with SK-MEL-2 melanoma it was 14.1 µM.

Turning to `COc1cccc(CNc2ncnc3c2ncn3C2OC(CO)C(O)C2O)c1O` (stereo not drawn), the GI50 with OVCAR-4 ovarian is 0.105 µM; with IGROV1 ovarian, 0.206 µM; with HOP-62 NSCLC, 0.387 µM; in the assay on KM12 colon, 12.9 µM; with OVCAR-3 ovarian it was 0.539 µM; in the assay on SF-295 CNS, 0.165 µM. Also, the GI50 with HS 578T breast was 0.108 µM; in the assay with HCT-116 colon, 0.0659 µM; in the assay with SK-MEL-2 melanoma, 0.656 µM. The TGI in the assay on OVCAR-4 ovarian is more than 100 µM; in the assay on HOP-62 NSCLC it was more than 100 µM; with KM12 colon, more than 100 µM; in the assay with OVCAR-3 ovarian, 4.11 µM; with SF-295 CNS it was 0.66 µM; in the assay on HS 578T breast it was 0.577 µM. Besides, in the assay on SK-MEL-2 melanoma, the TGI is more than 100 µM.

For `NC(=O)c1cccnc1`, the GI50 with OVCAR-4 ovarian, in the assay with HOP-62 NSCLC, with KM12 colon, with OVCAR-3 ovarian, in the assay with HOP-92 NSCLC and in the assay with SF-295 CNS was more than 100 µM in each case. The GI50 in the assay with HS 578T breast, with HCT-116 colon and with SK-MEL-2 melanoma was more than 100 µM each time. Also, the TGI in the assay on OVCAR-4 ovarian, in the assay on HOP-62 NSCLC, with KM12 colon, in the assay with OVCAR-3 ovarian, in the assay with HOP-92 NSCLC and in the assay on SF-295 CNS was more than 100 µM each time. Further, the TGI in the assay with HS 578T breast, in the assay with HCT-116 colon and in the assay with SK-MEL-2 melanoma was more than 100 µM each time.
